Experiments:
human GR [1] = molecular target: T1, human GR (Homo sapiens, UniProt P04150); test: Trans-Activation Modulation of Glucocorticoid Receptor (GRAMMER), MMTV-LUC reporter, agonist mode; type: cell-based; set-up: endogenous in cells; settings: maximum activity; for Emax: A549, A549 cells, read-out: Transactivation A549 Cells GRAMMER Emax
T1 sequence (P04150 1-777): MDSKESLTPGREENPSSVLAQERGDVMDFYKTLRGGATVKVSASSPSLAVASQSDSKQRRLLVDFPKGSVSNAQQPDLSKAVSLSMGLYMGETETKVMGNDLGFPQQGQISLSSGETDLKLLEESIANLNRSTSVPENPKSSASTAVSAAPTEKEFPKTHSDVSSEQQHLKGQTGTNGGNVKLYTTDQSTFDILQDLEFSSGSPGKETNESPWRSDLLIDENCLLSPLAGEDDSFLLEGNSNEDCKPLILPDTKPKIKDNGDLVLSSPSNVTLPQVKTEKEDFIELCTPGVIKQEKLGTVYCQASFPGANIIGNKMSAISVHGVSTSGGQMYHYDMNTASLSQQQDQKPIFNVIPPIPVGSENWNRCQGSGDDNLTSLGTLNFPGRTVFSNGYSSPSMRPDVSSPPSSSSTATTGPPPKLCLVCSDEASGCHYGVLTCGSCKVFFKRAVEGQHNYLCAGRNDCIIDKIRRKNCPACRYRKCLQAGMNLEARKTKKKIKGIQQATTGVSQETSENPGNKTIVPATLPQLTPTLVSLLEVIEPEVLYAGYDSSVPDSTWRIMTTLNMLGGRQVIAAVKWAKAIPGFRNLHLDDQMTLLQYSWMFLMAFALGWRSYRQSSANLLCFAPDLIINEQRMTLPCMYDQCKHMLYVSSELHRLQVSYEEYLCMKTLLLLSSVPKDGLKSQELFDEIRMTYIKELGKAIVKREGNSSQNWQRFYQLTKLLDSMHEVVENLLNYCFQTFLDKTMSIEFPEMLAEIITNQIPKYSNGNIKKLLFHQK
Source text: This assay assesses the ability of test compounds to control transcription from the MMTV-LUC reporter gene in lung adenocarcinoma A549 cells or MDA-MB-453 cells, a human breast cancer cell line that naturally expresses the human GR. The assay measures induction of a modified MMTV LTR/promoter linked to the LUC reporter gene.
The routine transient assay consists of plating 7,000-25,000 cells/well of a white, clear-bottom 96-well plate. Alternatively, 384-well plates can be used at a cell concentration of 10,000/well. The media that the cells are plated in is “exponential growth medium” which consists of phenol red-free RPMI1640 containing 10% FBS, 4 mM L-glutamine, 20 mM HEPES, 10 ug/mL human insulin, and 20 ug/mL gentamicin. Incubator conditions are 37° C. and 5% CO2. The transfection is done in batch mode. The cells are trypsinized and counted to the right cell number in the proper amount of fresh media. It is then gently mixed with the FuGene6/DNA mix and plated onto the 96 or 384-well plate, all the wells receive 100 uL or 40 uL, respectively, of medium+lipid/DNA complex then incubated 37° C. overnight. The transfection cocktail consists of serum-free OptiMEM, FuGene6 reagent and DNA. The manufacturer's (Roche Biochemical) protocol for cocktail setup is as follows: The lipid to DNA ratio is approximately 2.5:1 and the incubation time is 20 min at room temperature. Sixteen to 24 hours after transfection, the cells are treated with dexamethasone to a final concentration of 10 nM as well as the compound of interest, such that final DMSO (vehicle) concentration is equal to or less than 1%. Each plate also contains samples that are treated with 10 nM dexamethasone alone, which is used as the 100% activity control. The cells are exposed to the compounds for 24 hours. After 24 hours, the cells are lysed by a Promega cell culture lysis buffer for approximately 30 min and then the luciferase activity in the extracts is assayed in the 96-well format luminometer. In 384-well format, Steady-Glo (Promega) or Steady-Lite (PerkinElmer) can be used by adding an equal volume of reagent to the media present in each well. Activity induced by 10 nM dexamethasone alone is set at 100% activity. Antagonist activity is calculated by determining the decrease in dexamethasone-induced activity in response to compound treatment relative to samples that were treated with dexamethasone alone. […] This transactivation assay can be performed in an agonist and antagonist mode to identify these different activities.

human GR [2] = molecular target: T1, human GR; test: Transrepression Assay (GITAR), TNFα-β-lactamase reporter in U937 cells; type: cell-based; set-up: U937 cells contain an endogenous glucocorticoid receptor (GR); endogenous in cells; host or cells: U937 cells stably transfected with the TNF-alpha promoter/beta-lactamase reporter; settings: for GITAR > GRAMM % SEP: GITAR Emax minus GRAMMER Emax
Source text: This assay assesses the ability of test compounds to control transcription from the TNFα-β-lactamase reporter gene in U937 cells, a human myelomonocytic leukemia cell line that naturally expresses the human GR. The assay measures compound dependent-repression of the TNFa promoter linked to a reporter gene.
The human U937 cells that had been stablely transfected with the TNF-α promoter driving β-lactamase are used for this assay. U937 cells contain an endogenous glucocorticoid receptor (GR). Cells are maintained in RPMI 1640 Growth medium (Gibco Cat#11875-093) containing 25 mM HEPES, 10% FBS, 2 mM L-Glutamine, 1 mM Sodium pyruvate, 25 μg/ml Gentamicin (Gibco Cat#15710-064), 1:1000 2-Mercaptoethanol (Gibco Cat#21985-023) and 0.8 mg/ml G418 (Gibco Cat#10131-027). The density of the cells in the flask needs to be about 1×10^6−3×10^6/ml at the time of harvest. Usually, the cells are split to 1.2˜1.4×10^5/ml (1:10) 3 days prior to the assay. 50,000 cells/well are plated in 96 well black-walled plates the day of assay. Test compounds are added 10 μL/well, and cells are incubated at 37° C. for 30˜45 min. For assaying compounds, first dilute 1:10 in DMSO to make 1 mM, then further dilute 1:100 in medium to make 10× stock prior to adding to the cells. Add 50 ng/mlPMA (Sigma, cat# P8139) 10 μL/well to a final concentration 5 ng/ml, and 1 μg/ml LPS (Sigma, cat# L4130) 10 μL/well to a final concentration 100 ng/ml. Incubate cells at 37° C. overnight for ˜18 hr. PMA is stored frozen as 100 μg/ml stock in DMSO. Dilute 1:10 in DMSO for a working stock of 10 μg/ml and store at −20 C. For assaying, dilute the 10 μg/ml working stock 1:200 in medium to make a 10× solution (50 ng/ml). Store frozen LPS at 1 mg/ml in PBS, dilute 1:1000 in medium to make 10× (1 μg/ml) for the assay. Add 6× loading buffer (CCF2-AM) 20 μL/well, and incubate at room temperature for 70˜90 min. […] The activity repressed by 100 nM dexamethasone alone is set as 100% activity.

[3] = U-937, U937 cells, maximum activity, read-out: Transrepression U937 Cells GITAR Emax
[4] = U-937, activity repressed by 100 nM dexamethasone alone set as 100%, read-out: maximal activity in the transrepression (GITAR) assay

Compound	Emax (human GR [1]) [%]	GITAR > GRAMM % SEP (human GR [2]) [%]	Emax (human GR [2]; [3]) [%]	Emax (human GR [2]; [4]) [%]	Transactivation A549 Cells GRAMMER Emax (human GR [1]; A549 cells) [%]	Transrepression U937 Cells GITAR Emax (human GR [2]; U937 cells, maximum activity) [%]
C[C@]12Cc3cnn(-c4ccc(F)cc4)c3C=C1CC[C@@H]2CN(CCc1ccccc1F)S(=O)(=O)C1CC1 [Example 101, N-[2-(2-fluorophenyl)ethyl]-N-{[(4αR,5S)-1-(4-fluorophenyl)-4α-methyl-1,4,4α,5,6,7-hexahydrocyclopenta[f]indazol-5-yl]methyl}cyclopropanesulfonamide]	62.8	32.6	95.4	> 5		
C[C@]12Cc3cnn(-c4ccc(F)cc4)c3C=C1CC[C@@H]2CN(CC1CC1)S(=O)(=O)c1ccccc1Cl [Example 22, 2-chloro-N-(cyclopropylmethyl)-N-{[(4αR,5S)-1-(4-fluorophenyl)-4α-methyl-1,4,4α,5,6,7-hexahydrocyclopenta[f]indazol-5-yl]methyl}benzenesulfonamide]		43.9			27.9	71.8

Results, then the compound that gave them:

Emax (human GR [1]) [%]	GITAR > GRAMM % SEP (human GR [2]) [%]	Emax (human GR [2]; [3]) [%]	Emax (human GR [2]; [4]) [%]	Transactivation A549 Cells GRAMMER Emax (human GR [1]; A549 cells) [%]	Transrepression U937 Cells GITAR Emax (human GR [2]; U937 cells, maximum activity) [%]	Compound
34.4	29.8	64.2	> 5			C[C@]12Cc3cnn(-c4ccc(F)cc4)c3C=C1CC[C@@H]2CN(CC1CC1)S(=O)(=O)c1ccccc1Cl [Example 12, 2-chloro-N-(cyclopropylmethyl)-N-{[(4αR,5S)-1-(4-fluorophenyl)-4α-methyl-1,4,4α,5,6,7-hexahydrocyclopenta[f]indazol-5-yl]methyl}benzenesulfonamide]
26	42.5	68.5	> 5			C[C@]12Cc3cnn(-c4ccc(F)cc4)c3C=C1CC[C@@H]2CN(CCO)S(=O)(=O)c1ccc(C#N)cc1 [Example 62, 4-cyano-N-{[(4αR,5S)-1-(4-fluorophenyl)-4α-methyl-1,4,4α,5,6,7-hexahydrocyclopenta[f]indazol-5-yl]methyl}-N-(2-hydroxyethyl)benezenesulfonamide]
2.7	21.0	23.8	> 5			C[C@]12Cc3cnn(-c4ccc(F)cc4)c3C=C1CC[C@@H]2CN(CCO)S(=O)(=O)c1ccc(-c2cnco2)s1 [Example 57, N-{[(4αR,5S)-1-(4-fluorophenyl)-4α-methyl-1,4,4α,5,6,7-hexahydrocyclopenta[f]indazol-5-yl]methyl}-N-(2-hydroxyethyl)-5-(1,3-oxazol-5-yl)thiophene-2-sulfonamide]
